Experimental data published in patent US20160002247A1, “8-SUBSTITUTED IMIDAZOPYRIMIDINONE DERIVATIVE HAVING AUTOTAXIN INHIBITORY ACTIVITY” (THE UNIVERSITY OF TOKYO, priority 2013, published 2016).
Read-outs that look alike come from different tables or passages of the source.

Molecular target: T1, Human autotaxin enzyme (Homo sapiens, UniProt Q13822)
T1 construct: purchased R&D System
Assay: Evaluation of autotaxin inhibitor, Method C (Test Example 3): 18:0 Lyso PC, choline assay, Resorufin fluorescence
Format: biochemical
Outline: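 Human autotaxin in Tris-HCl pH 7.5, 150 mM NaCl, 5 mM MgCl2, 0.05% Triton X-100 reacted 2 h at room temperature with 18:0 Lyso PC (200 μM solution added). Released choline detected via choline oxidase/peroxidase/Amplex-type reagent, resorufin fluorescence (ex 531/em 598 nm); inhibition vs no-compound and no-enzyme controls, concentration-response curve.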

[1] = Assay Method: Method C (Test Example 3), read-out: Inhibitory Activity (Enzyme Inhibitory Activity, IC50)
[2] = Assay Method C (Test Example 3), human autotaxin, 18:0 Lyso PC substrate, read-out: Inhibitory Activity (autotaxin enzyme inhibitory activity, IC50 class)
[3] = Assay Method C, human autotaxin, 18:0 Lyso PC substrate, read-out: Inhibitory Activity

Structure (SMILES) | IC50 [2] | other results
Cc1cc(=O)n2cc(-c3ccc(Cl)cc3)nc2n1CCCC(C)O (stereo not drawn) [Compound 46] | – | IC50 [1]: > 1000 nM
CCCCCn1c(N(C)CC(=O)O)cc(=O)n2cc(-c3ccc(Cl)cc3)nc12 [Compound 602] | 100 to 1000 nM | –
O=C(Cc1cn(CCCC(F)(F)F)c2nc(-c3ccc(Cl)cc3)cn2c1=O)N(CCO)CCO [Compound 833] | – | IC50 [3]: > 1000 nM
CCCCCn1c(N2CCCC[C@@H]2C(=O)NCCC(=O)O)cc(=O)n2cc(-c3ccc(Cl)cc3)nc12 [Compound 626] | 10 to 100 nM | –
O=C(Cc1cn(CCCC(F)(F)F)c2nc(-c3ccc(Cl)cc3)cn2c1=O)N[C@H](CO)Cc1ccccc1 [Compound 866] | – | IC50 [3]: > 1000 nM
CCCCCn1c(N2CCN(C(C)=O)CC2)cc(=O)n2cc(-c3ccc(Cl)cc3)nc12 [Compound 242] | 10 to 100 nM | –
CCCCCn1c(N2CCC[C@H]2C(=O)N[C@@H](CC(C)(C)C)C(=O)O)cc(=O)n2cc(-c3ccc(Cl)cc3)nc12 [Compound 730] | < 10 nM | –
CCCCCn1c(N2CCNC[C@H]2C(=O)NCCC(=O)O)cc(=O)n2cc(-c3ccc(Cl)cc3)nc12 [Compound 664] | 10 to 100 nM | –
CCCCCn1c(N(C)Cc2ccc(C(=O)O)cc2)cc(=O)n2cc(-c3ccc(Cl)cc3)nc12 [Compound 197] | 10 to 100 nM | –
CCCCCn1c(N2CCN(C(=O)OC(C)(C)C)C[C@@H]2C(=O)NCCC(=O)O)cc(=O)n2cc(-c3ccc(Cl)cc3)nc12 [Compound 619] | 10 to 100 nM | –
Cn1c(N2CCC[C@H]2C(=O)N[C@@H](Cc2ccccc2)C(=O)O)cc(=O)n2cc(-c3ccc(Cl)cc3)nc12 [Compound 767] | 100 to 1000 nM | –
CCCCCn1c(N2CCC[C@H]2C(=O)NCCCCCCN(C)C)cc(=O)n2cc(-c3ccc(Cl)cc3)nc12 [Compound 651] | 10 to 100 nM | –
CCC(O)CCn1c(C)cc(=O)n2cc(-c3ccc(Cl)cc3)nc12 (stereo not drawn) [Compound 47] | – | IC50 [1]: > 1000 nM
CCCCCn1c(O[C@H]2CCN(CCC(=O)O)C2)cc(=O)n2cc(-c3ccc(Cl)cc3)nc12 [Compound 576] | 10 to 100 nM | –
CCCCCn1c(-c2cnc(N)nc2)cc(=O)n2cc(-c3ccc(Cl)cc3)nc12 [Compound 459] | 10 to 100 nM | –
CCCCCn1c(N2CCC(C(=O)N3CCCC3=O)CC2)cc(=O)n2cc(-c3ccc(Cl)cc3)nc12 [Compound 299] | 10 to 100 nM | –
CCCCCn1c(-c2cncnc2)cc(=O)n2cc(-c3ccc(Cl)cc3)nc12 [Compound 409] | 10 to 100 nM | –
CCCCCn1c(N2CCC[C@H]2C(=O)NCC(C)C(=O)O)cc(=O)n2cc(-c3ccc(Cl)cc3)nc12 (stereo partly drawn) [Compound 355] | < 10 nM | –
N#CCN(CC#N)C(=O)Cc1cn(CCCC(F)(F)F)c2nc(-c3ccc(Cl)cc3)cn2c1=O [Compound 839] | – | IC50 [3]: 100 to 1000 nM
CCn1c(N2C[C@H](O)C[C@H]2C(=O)N[C@H](C(=O)O)C(C)(C)C)cc(=O)n2cc(-c3ccc(Cl)cc3)nc12 [Compound 764] | 10 to 100 nM | –
CCCCCn1c(-c2cnc(C#N)nc2)cc(=O)n2cc(-c3ccc(Cl)cc3)nc12 [Compound 530] | 10 to 100 nM | –

Structure (SMILES) | IC50 [2] | other results
CCCCCn1c(-c2ccccc2F)cc(=O)n2cc(-c3ccc(Cl)cc3)nc12 [Compound 443] | 100 to 1000 nM | –
CCCCCn1c(N2C[C@@H](O)C[C@H]2C(=O)O)cc(=O)n2cc(-c3ccc(Cl)cc3)nc12 [Compound 590] | 100 to 1000 nM | –
CCCCCn1c(N2CCC[C@H]2C(=O)N[C@@H](CO)C(=O)OC)cc(=O)n2cc(-c3ccc(Cl)cc3)nc12 [Compound 687] | 100 to 1000 nM | –
CCCCCn1c(N2CCC[C@@H](C)C2)cc(=O)n2cc(-c3ccc(Cl)cc3)nc12 [Compound 811] | – | IC50 [3]: > 1000 nM
CCCCCn1c(-c2ccc(C(=O)NCCNC(C)=O)cc2)cc(=O)n2cc(-c3ccc(Cl)cc3)nc12 [Compound 470] | 10 to 100 nM | –
CCCCCn1c(N2CCC[C@H]2C(=O)NCCCCCN(C)C)cc(=O)n2cc(-c3ccc(Cl)cc3)nc12 [Compound 653] | 100 to 1000 nM | –
CCCCCn1c(N2CCNC[C@H]2C(=O)NCC(=O)O)cc(=O)n2cc(-c3ccc(Cl)cc3)nc12 [Compound 667] | 10 to 100 nM | –
CCCCCn1c(-c2ccc(C(=O)NCCC(=O)N3CCOCC3)cc2)cc(=O)n2cc(-c3ccc(Cl)cc3)nc12 [Compound 517] | 10 to 100 nM | –
CN(C)CCNC(=O)c1ccc(-c2cc(=O)n3cc(-c4ccc(Cl)cc4)nc3n2CCCC(F)(F)F)cc1 [Compound 381] | 10 to 100 nM | –
Cn1cc(Cc2cccc(C(=O)O)c2)c(=O)n2cc(-c3ccc(Cl)cc3)nc12 [Compound 819] | – | IC50 [3]: 100 to 1000 nM
CCCCCn1c(N2CCC3(CN(C(=O)OC(C)(C)C)C3)C2)cc(=O)n2cc(-c3ccc(Cl)cc3)nc12 [Compound 313] | 100 to 1000 nM | –
CCCCCn1c(N2C[C@@H](O)C[C@H]2C(=O)N[C@@H](CCc2ccccc2)C(=O)O)cc(=O)n2cc(-c3ccc(Cl)cc3)nc12 [Compound 777] | < 10 nM | –
CCCCCn1c(N2CCC(F)(F)CC2)cc(=O)n2cc(-c3ccc(Cl)cc3)nc12 [Compound 310] | 100 to 1000 nM | –
O=C(Cc1cn(CCCC(F)(F)F)c2nc(-c3ccc(Cl)cc3)cn2c1=O)NC1COC1 [Compound 846] | – | IC50 [3]: > 1000 nM
CCCCCn1c(N2CCCC2CC(C)C)cc(=O)n2cc(-c3ccc(Cl)cc3)nc12 (stereo not drawn) [Compound 308] | 10 to 100 nM | –
CCCCCn1c(N2CCCC[C@H]2C)cc(=O)n2cc(-c3ccc(Cl)cc3)nc12 [Compound 814] | – | IC50 [3]: 100 to 1000 nM
CC(=O)CNC(=O)Cc1cn(CCCC(F)(F)F)c2nc(-c3ccc(Cl)cc3)cn2c1=O [Compound 856] | – | IC50 [3]: > 1000 nM
CC(C)(C)OC(=O)NCCNC(=O)Cc1cn(CCCC(F)(F)F)c2nc(-c3ccc(Cl)cc3)cn2c1=O [Compound 840] | – | IC50 [3]: 100 to 1000 nM
CCCCCn1c(O[C@H]2C[C@H](NC(=O)OC(C)(C)C)C2)cc(=O)n2cc(-c3ccc(Cl)cc3)nc12 [Compound 552] | 100 to 1000 nM | –
CCCCCn1c(N2CCC[C@H]2C(=O)NCCCN)cc(=O)n2cc(-c3ccc(Cl)cc3)nc12 [Compound 352] | > 1000 nM | –
CCCCCn1c(N2CCC[C@H]2C(=O)NC(C)C(O)C(F)(F)F)cc(=O)n2cc(-c3ccc(Cl)cc3)nc12 (stereo partly drawn) [Compound 800] | – | IC50 [3]: 10 to 100 nM

Structure (SMILES) | IC50 [2] | other results
CCCCCn1c(N2CCC[C@H]2C(=O)N[C@@H](Cc2ccc3ccccc3c2)C(=O)O)cc(=O)n2cc(-c3ccc(Cl)cc3)nc12 [Compound 726] | < 10 nM | –
CNC(=O)Cc1cn(CCCC(F)(F)F)c2nc(-c3ccc(Cl)cc3)cn2c1=O [Compound 851] | – | IC50 [3]: 100 to 1000 nM
CCCCCn1c(N2CCC[C@H]2C(=O)NCCCn2ccnc2)cc(=O)n2cc(-c3ccc(Cl)cc3)nc12 [Compound 335] | 100 to 1000 nM | –
CCCCCn1c(O[C@@H]2CO[C@H]3[C@@H]2OC[C@H]3O)cc(=O)n2cc(-c3ccc(Cl)cc3)nc12 [Compound 544] | 100 to 1000 nM | –
CCCCCn1c(N2CCC[C@H]2C(=O)NCC(O)CC(F)(F)F)cc(=O)n2cc(-c3ccc(Cl)cc3)nc12 (stereo partly drawn) [Compound 786] | – | IC50 [3]: 100 to 1000 nM
Cc1cc(=O)n2cc(-c3ccc(Cl)cc3)nc2n1Cc1c(F)cccc1F [Compound 119] | 100 to 1000 nM | –
CC(C)(C)[C@H](NC(=O)[C@@H]1CCCN1c1cc(=O)n2cc(-c3ccc(Cl)cc3)nc2n1Cc1ccccc1)C(=O)O [Compound 746] | < 10 nM | –
CCCCCn1c(N2CCC[C@H]2C(=O)NC(C(=O)O)C(F)(F)F)cc(=O)n2cc(-c3ccc(Cl)cc3)nc12 (stereo partly drawn) [Compound 815] | – | IC50 [3]: < 10 nM
CCCCCn1c(OCC2(F)COC2)cc(=O)n2cc(-c3ccc(Cl)cc3)nc12 [Compound 718] | 10 to 100 nM | –
CCCCCn1c(N2CCC[C@H]2C(=O)NC(C(N)=O)c2ccccc2)cc(=O)n2cc(-c3ccc(Cl)cc3)nc12 (stereo partly drawn) [Compound 789] | – | IC50 [3]: 10 to 100 nM
CCCCCn1c(-c2ccc(C(=O)NC(C)(C)C)cc2)cc(=O)n2cc(-c3ccc(Cl)cc3)nc12 [Compound 468] | 100 to 1000 nM | –
CCCCCn1c(-c2ccc(C(=O)NCC(O)CO)cc2)cc(=O)n2cc(-c3ccc(Cl)cc3)nc12 (stereo not drawn) [Compound 487] | < 10 nM | –
CCCCCn1c(N2CCC[C@H]2C(=O)NC(C)C(=O)O)cc(=O)n2cc(-c3ccc(Cl)cc3)nc12 (stereo partly drawn) [Compound 737] | < 10 nM | –
CCCCCn1c(N2CCC[C@H]2C(=O)NC2(C(=O)O)CC2)cc(=O)n2cc(-c3ccc(Cl)cc3)nc12 [Compound 679] | < 10 nM | –
CCCCCn1c(N(C)CC(=O)NCC(=O)O)cc(=O)n2cc(-c3ccc(Cl)cc3)nc12 [Compound 609] | 10 to 100 nM | –
N#CCCCCn1c(NCc2ccc(C(=O)O)cc2)cc(=O)n2cc(-c3ccc(C(F)(F)F)cc3)nc12 [Compound 198] | 10 to 100 nM | –
CCCCCn1c(-c2ccc(S(=O)(=O)O)cc2)cc(=O)n2cc(-c3ccc(Cl)cc3)nc12 [Compound 429] | 10 to 100 nM | –
CCCCCn1c(N2C[C@H](O)C[C@H]2C(=O)NCCC(=O)OCC)cc(=O)n2cc(-c3ccc(Cl)cc3)nc12 [Compound 593] | 10 to 100 nM | –
CCCCCn1c(-c2ccc(C(=O)NCCN3CC4(COC4)C3)cc2)cc(=O)n2cc(-c3ccc(Cl)cc3)nc12 [Compound 365] | 10 to 100 nM | –
O=C(O)c1cccc(Cc2cn(CCCC(F)(F)F)c3nc(-c4ccc(Cl)cc4)cn3c2=O)c1 [Compound 826] | – | IC50 [3]: 10 to 100 nM
CCCCCn1c(N2CCC(c3ccccc3)C2)cc(=O)n2cc(-c3ccc(Cl)cc3)nc12 (stereo not drawn) [Compound 327] | 100 to 1000 nM | –
